# Results from publication PMC9838834, “Improvement of Antialveolar echinococcosis efficacy of novel Albendazole-Bile acids Derivatives with Enhanced Oral Bioavailability” (PLOS Neglected Tropical Diseases, 2023).
# Tests used:
# [1] = Systemic pharmacokinetics in SD rats (UHPLC-MS); type: in vivo, Sprague-Dawley (SD) rats; conditions: SD rats, oral 25 mg/kg
# Experimental: A Dionex Ultimate 3000 RSLC system (Thermofisher) combined with an Accucore aQ C18 column (150 mm×2.1 mm, 2.6 μm, Thermo fisher) was used in the sample separation process. The separation speed was set at […] for all gradients. 1 μL of injection volume and a constant temperature of (25 ± 1°C were set for the column. The eluents were A, water with 0.1% formic acid (v/v) and B, methanol; the gradient program was as follows: 0–6 min, 8–40% B; 6–8 min, 40–100% B; 8–10 min, 100% B; 10–11 min, 100–8% B; 11–13 min, 8% B.
# Heated electro-spray ionization (HE-SI) was paired with a Q-Orbitrap MS in the MS analysis. The flow rate of auxiliary, sheath and sweep gas was set at 35, 10, and 1 (arbitrary unit), respectively. A full MS-ddMS^2 mode was used to perform the analysis. The damping gas in the C-trap and nitrogen was used to stabilize the spraying. Temperatures of 350°C and 320°C were set and kept for the auxiliary gas heater and capillary. Under negative mode, 3.0 kV was adopted for the spray voltage, 60 V was used for the S-lens RF level, 50 ms was used for the maximum injection time, and 3.0 ^e6 was set as the automatic gain control target. Full MS-ddMS^2 scan ranged from 150.0000 to 800.0000 m/z. Precise molecular weight […] was used for qualitative analysis, the corresponding peak area was used for quantitative analysis, and MS^2 fragments were used for further qualitative analysis.
# A cross-over design was employed with male SD rats (n = 7) to evaluate in vivo pharmacokinetics. The rats were subjected to fasting for one night before each administration and were fed 4 hours after administration. ABZ was administered by gavage (25 mg/kg). Blood was collected under isoflurane anesthesia at a flow rate of 2.0 mL/min. At 0.25, 0.5, 1, 2, 2.5, 3, 4, 6, 8, 12, and 24 hours after administration, 200–500 μL blood was collected from the orbital venous plexus and centrifuged at 13000 rpm for 5 min. The upper plasma was stored at—80°C for testing.
# Plasma samples were thawed at room temperature, and 100 μL was added to an equal volume of mass spectrometry grade methanol, vortexed for 1 min, and centrifuged again at 13000 rpm for 5 min. 100 μL of the supernatant were added to 100 μL of 200 ng/mL mebendazole IS solution, vortexed for 1 min, and centrifuged again at 13000 rpm for 5 min. The resulting sample was injected by UHPLC-HR-ESI-MS with an injection volume of 1 μL. The pharmacokinetic study of SD rats was performed according to the standards recommended by the "Guidelines for the Care and Use of Laboratory Animals" (Animal Laboratory Resources Institute, 1995) and was approved by the Institutional Animal Care and Use Committee of Qinghai University.
# protoscolex (PSCs) [2] = experiment: Detection of protoscolex mortality / survival rate in vitro (trypan blue); type: cell-based, E. multilocularis; conditions: 7 days; ABZ 10 μg/mL, ABZ-SO 10 μg/mL, ABZ-BA 13.45, 26.9, 53.8 μg/mL; liver homogenate + 0.2% DMSO; n = 3
# Text: (§1) Protoscoleces (PSCs) from E. multilocularis were collected aseptically from alveolar echinococcosis obtained from the abdominal cavity of gerbils in Qinghai Research Key Laboratory for Echinococcosis, China. The specific operation steps were as follows: (1) dissect the successfully preserved Echinococcus protoscoleces gerbil model, isolate cysts and wash the residual liver tissue and blood with sterile Penicillin-Streptomycin solution (penicillin (1500 U/ mL) + streptomycin (1000 U/ mL)). (2) Place the clean cysts in sterile glassware, cut them into a slurry, filter the original head section with sterile gauze, and rinse them with Penicillin-Streptomycin solution 3 times. (3) Slightly rotate and shake the filtrate, absorb the suspended connective tissue, impurities, inactivated PSCs, and excess Penicillin-Streptomycin solution in the upper layer, repeat several times and finally concentrate the pure PSCs into the test tube. Viability was assessed by muscular movement (evaluated under an optical microscope), the motility of flame cells, and the exclusion test with methylene blue. The PSCs were incubated in an RPMI 1640 medium containing 0.20 mg/mL liver homogenous serous, 100 U/mL penicillin, 100 μg/mL streptomycin and 10% calf serum at 37°C in a 5% CO2 atmosphere at a concentration of (1000–2000) PSCs/mL.
# (§2) The PSCs were divided into blank control groups (Groups 1 and 2), positive control groups (Groups 3 and 4), and experimental groups (Groups 5 to 7). Group 1 was RPMI-1640 medium with 0.20 mg/mL liver homogenate; Group 2 was 0.2% DMSO medium with 0.2% DMSO; Group 3 was RPMI-1640 medium with 0.20 mg/mL liver homogenate and 0.2% DMSO, containing 10 μg/mL Albendazole; Group 4 was RPMI-1640 medium with 0.20 mg/mL liver homogenate and 0.2% DMSO, containing 10 μg/mL albendazole sulfoxide; Groups 5–7 were RPMI-1640 medium with 0.20 mg/mL liver homogenate and 0.2% DMSO, containing 13.45, 26.9 and 53.8 μg/mL ABZ-BA, with effective ABZ concentrations of 5, 10 and 20 μg/mL, respectively. The culture medium and drug were changed every 3 days for one week. PSCs samples (10 μL) were collected every day and stained with 0.4% trypan blue staining solution, observed under an inverted microscope, and photographed to record PSC mortality.
# protoscolex (PSCs) [3] = experiment: Protoscolex microstructure by optical microscope and SEM; type: cell-based, E. multilocularis; conditions: 5 days after treatment, 10 μg/mL
# Text: as §1, §2
# For ultrastructural studies, 200 μL PSCs were taken from each group 5 days after treatment and fixed with 4% glutaraldehyde in sodium cacodylate buffer at 4°C for 72 hours. Samples were dehydrated by continuous incubation in increasing concentrations of ethanol (50–100%), and ethanol was removed by supercritical extraction. They were then sputter-coated with gold (100 Å thick) and examined on an FEI Quanta 200 scanning electron microscope operating at 20 kV.
detection in plasma 24 hours after administration [1],shape of the drug time curve [1],Frel (relative bioavailability) = AUCAbz(0–24)/AUCABZ (0–24) ([1]; n = 7) [%],SMILES,inhibitory effect on PSC survival rate (protoscolex (PSCs) [2]),PSC morphology under the SEM (protoscolex (PSCs) [3]),PSC morphology under the optical microscope (OM) (protoscolex (PSCs) [3]),mortality of PSCs (protoscolex (PSCs) [3]; vs blank groups)
still detected,double-peak,2613,CCCSc1ccc2[nH]c(NC(=O)OC)nc2c1 [Abz],–,–,–,–
–,–,–,"CCC[S+]([O-])c1ccc2[nH]c(NC(=O)OC)nc2c1 (stereo not shown) [ABZ-SO, albendazole sulfoxide]",time and concentration-dependent inhibitory effects,elongated and curled up,became vacuolar and transparent,significantly higher than in the blank groups
